Experimental findings from ChEMBL document CHEMBL5247610, “Discovery of 5-((4-(pyridin-3-yl)pyrimidin-2-yl)amino)-1H-indole-2-carboxamide derivatives as novel anti-cancer agents targeting Nur77” (Eur J Med Chem, 2022) are described below.

Data set [1] deals with HeLa. In words: Antiproliferative activity against human HeLa cells assessed as cell viability at 10 uM incubated for 48 hrs by MTT assay. The format is functional. The conditions noted are these: read-out: Activity.
Data set [2] deals with HepG2. In words: Antiproliferative activity against human HepG2 cells assessed as cell viability at 10 uM incubated for 48 hrs by MTT assay. The data set is classed as functional. The settings on record: read-out: Activity. (In general: Tetrazolium assays rely on reduction of a dye to a coloured formazan, in cell work by metabolically active cells.)
The nature of data set [3]: Cytotoxicity against human L02 cells assessed as cell viability at 10 uM incubated for 48 hrs by MTT assay. The format is toxicity, cell-based. The conditions noted are these: read-out: Activity.
The target in data set [4] is T1, Nuclear receptor subfamily 4immunitygroup A member 1 (Homo sapiens, UniProt P22736). In words: Binding affinity to Nur77 (unknown origin).
Data set [5] deals with T1, Nuclear receptor subfamily 4immunitygroup A member 1. In words: Binding affinity to Nur77-LBD (unknown origin).
The subject of data set [6] is HepG2. In words: Antiproliferative activity against human HepG2 cells assessed as reduction in cell viability incubated for 48 hrs by MTT assay. The settings on record: HepG2, 48 h. The format is functional, cell-based.
Data set [7] relates to Huh-7. In words: Antiproliferative activity against human Huh-7 cells assessed as reduction in cell viability incubated for 48 hrs by MTT assay. The data set is classed as functional, cell-based. The settings on record: Huh-7, 48 h.
The subject of data set [8] is SMMC-7721. In words: Antiproliferative activity against human SMMC-7721 cells assessed as reduction in cell viability incubated for 48 hrs by MTT assay. The data set is classed as functional, cell-based. The conditions noted are these: SMMC-7721, 48 h.
Data set [9] has as its system HeLa. In words: Antiproliferative activity against human HeLa cells assessed as reduction in cell viability incubated for 48 hrs by MTT assay. The format is functional, cell-based.
Data set [10] deals with MDA-MB-231. In words: Antiproliferative activity against human MDA-MB-231 cells assessed as reduction in cell viability incubated for 48 hrs by MTT assay. The format is functional, cell-based. The settings on record: MDA-MB-231, 48 h.
Data set [11] concerns A549. In words: Antiproliferative activity against human A549 cells assessed as reduction in cell viability incubated for 48 hrs by MTT assay. The data set is classed as functional, cell-based. The conditions noted are these: A549, 48 h.
The nature of data set [12]: Cytotoxicity against human L02 cells assessed as reduction in cell viability incubated for 48 hrs by MTT assay. The data set is classed as toxicity, cell-based.
Data set [13] is described as follows: Selectivity index, ratio of IC50 for human L02 cells to IC50 for human HepG2 cells by MTT assay. The data set is classed as toxicity. The conditions noted are these: L02 cells versus HepG2 cells, read-out: Ratio IC50.
Data set [14] is described as follows: Selectivity index, ratio of IC50 for human L02 cells to IC50 for human Huh-7 cells by MTT assay. The format is toxicity. The conditions noted are these: L02 cells versus Huh-7 cells, read-out: Ratio IC50.
Data set [15] in a line: Selectivity index, ratio of IC50 for human L02 cells to IC50 for human SMMC-7721 cells by MTT assay. The format is toxicity. The conditions noted are these: L02 cells versus SMMC-7721 cells, read-out: Ratio IC50.
Data set [16] in a line: Selectivity index, ratio of IC50 for human L02 cells to IC50 for human HeLa cells by MTT assay. The format is toxicity. The settings on record: L02 cells versus HeLa cells, read-out: Ratio IC50.
The nature of data set [17]: Selectivity index, ratio of IC50 for human L02 cells to IC50 for human MDA-MB-231 cells by MTT assay. The format is toxicity. The conditions noted are these: L02 cells versus MDA-MB-231 cells, read-out: Ratio IC50.
A short description of data set [18]: Selectivity index, ratio of IC50 for human L02 cells to IC50 for human A549 cells by MTT assay. The format is toxicity. The conditions noted are these: L02 cells versus A549 cells, read-out: Ratio IC50.
The target in data set [19] is T1, Nuclear receptor subfamily 4immunitygroup A member 1. In words: Binding affinity to pBind-Nur77-LBD (unknown origin) transfected in HEK293T cells co-transfected with pG5-Luc assessed as inhibition of Nur77 transcriptional activity by measuring inhibition of Nur77-driven luciferase activity at 2 uM incubated for 12 hrs by luciferase reporter gene assay. The data set is classed as cell-based. The conditions noted are these: filed as modulator. In general terms: A reporter such as luciferase makes a cellular process visible.

Data set [20] can be described thus: Toxicity in Zebra fish AB embryo assessed as mortality rate at 0.5 uM incubated for 24 hrs. The conditions noted are these: zebrafish, read-out: Activity. Further details: species or system Danio rerio.
Data set [21] can be described thus: Toxicity in Zebra fish AB embryo assessed as mortality rate at 0.5 uM incubated for 72 hrs. Details: species or system Danio rerio. The conditions noted are these: zebrafish, read-out: Activity.
Data set [22] can be described thus: Toxicity in Zebra fish AB embryo assessed as mortality rate at 1 uM incubated for 24 hrs. The conditions noted are these: zebrafish, read-out: Activity. Details: species or system Danio rerio.
Data set [23] is described as follows: Toxicity in Zebra fish AB embryo assessed as mortality rate at 1 uM incubated for 72 hrs. Details: species or system Danio rerio. The conditions noted are these: zebrafish, read-out: Activity.

Activity calls are given as the source filed them. The calls are words filed in the database; no cut-off is given here.

T1 sequence (P22736 whole entry, the tested form may be a part): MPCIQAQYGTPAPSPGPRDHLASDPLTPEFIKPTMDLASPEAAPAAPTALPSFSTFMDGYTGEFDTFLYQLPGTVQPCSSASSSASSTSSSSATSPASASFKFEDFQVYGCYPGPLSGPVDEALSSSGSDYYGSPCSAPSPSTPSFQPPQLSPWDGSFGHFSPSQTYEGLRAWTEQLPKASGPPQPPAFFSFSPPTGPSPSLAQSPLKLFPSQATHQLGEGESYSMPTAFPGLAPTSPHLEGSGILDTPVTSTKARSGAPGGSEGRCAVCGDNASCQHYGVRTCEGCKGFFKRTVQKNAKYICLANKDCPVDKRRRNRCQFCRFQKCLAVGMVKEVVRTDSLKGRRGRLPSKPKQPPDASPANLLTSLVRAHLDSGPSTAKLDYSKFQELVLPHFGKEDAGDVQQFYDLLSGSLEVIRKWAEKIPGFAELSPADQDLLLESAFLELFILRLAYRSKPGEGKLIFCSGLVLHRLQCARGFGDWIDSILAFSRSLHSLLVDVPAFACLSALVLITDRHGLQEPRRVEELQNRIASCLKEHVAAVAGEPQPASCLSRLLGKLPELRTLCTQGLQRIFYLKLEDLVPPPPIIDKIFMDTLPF

As to `O=C(NCc1cccc(F)c1)c1cc2cc(Nc3nccc(-c4cccnc4)n3)ccc2[nH]1`, the viability at 10 µM in [1] is 80%; in data set [2], 82.5%. Also, the viability at 48 h, 10 µM in data set [3] was determined as 71.1%.
Take `Cc1ccc(NC(=O)c2cc3cc(Nc4nccc(-c5cccnc5)n4)ccc3[nH]2)cc1Nc1nccc(-c2cccnc2)n1`: the figures for the viability at 10 µM in data set [1] and in [2] were 95.9% and 86.5%, respectively. Moreover, in data set [3], the viability at 48 h, 10 µM came out at 79.6%.
Consider `O=C(Nc1cncnc1)c1cc2cc(Nc3nccc(-c4cccnc4)n3)ccc2[nH]1`, for which the viability at 10 µM amounted to 108% in data set [1] and 81.6% in data set [2]. Also, the viability at 48 h, 10 µM in data set [3] came out at 76.2%.
For `Nc1ccccc1NC(=O)c1cc2cc(Nc3nccc(-c4cccnc4)n3)ccc2[nH]1` the same measures were 33.2%, 76.4% and 71.1%.
The like results for `O=C(Nc1ccccc1)c1cc2cc(Nc3nccc(-c4cccnc4)n3)ccc2[nH]1` were, in that order, 46.4%, 84.4% and 70.9%.
As to `COc1cc(NC(=O)c2cc3cc(Nc4nccc(-c5cccnc5)n4)ccc3[nH]2)cc(OC)c1`, the viability at 10 µM in data set [1] amounted to 29.7%; in data set [2], 40.8%. Besides, the viability at 48 h, 10 µM in data set [3] was found to be 43.6%.
For `COc1ccc(NC(=O)c2cc3cc(Nc4nccc(-c5cccnc5)n4)ccc3[nH]2)cc1OC`, the viability at 10 µM in data set [1] came to 74.4%; in data set [2], 109%. For the same compound, in data set [3], the viability at 48 h, 10 µM was 91.9%.
Turning to `COc1ccc(NC(=O)c2cc3cc(Nc4nccc(-c5cccnc5)n4)ccc3[nH]2)c(C)c1`, the viability at 10 µM came out at 54.8% in data set [1] and 82.9% in data set [2]. Besides, the viability at 48 h, 10 µM in data set [3] stood at 69%.
As to `O=C(NC12CC3CC(CC(C3)C1)C2)c1cc2cc(Nc3nccc(-c4cccnc4)n3)ccc2[nH]1`, the viability at 10 µM in [1] was 124%; in [2] it was 83.4%. Moreover, the viability at 48 h, 10 µM in data set [3] was 81.3%.
Regarding `O=C(NCCN1CCCCC1)c1cc2cc(Nc3nccc(-c4cccnc4)n3)ccc2[nH]1`, the results for the viability at 10 µM in data set [1] and in [2] were 24.9% and 53.7%, respectively. Further, the viability at 48 h, 10 µM in data set [3] was determined as 59.1%.
Take `O=C(c1cc2cc(Nc3nccc(-c4cccnc4)n3)ccc2[nH]1)N1CCOCC1`: the viability at 10 µM was 36.8% in [1] and 78.2% in [2]. In addition, in [3], the viability at 48 h, 10 µM was 62.3%.
The term Kd denotes the free concentration of one partner at which half of the binding sites on the other are occupied at equilibrium, for simple one-to-one binding. A higher Kd goes with weaker binding. In data set [4], `O=C(N/N=C/c1ccncc1)c1cc2cc(Nc3ccnc4ccccc34)ccc2[nH]1` registered a Kd of 1.17 µM.
Take `CCCCNC(=O)c1cc2cc(Nc3nccc(-c4cccnc4)n3)ccc2[nH]1`: the viability at 10 µM in data set [1] turned out to be 104%; in data set [2] it was 107%. Also, in data set [3], the viability at 48 h, 10 µM was 102%.
For the compound `Cc1ccc(NC(=O)c2cc3cc(Nc4nccc(-c5cccnc5)n4)ccc3[nH]2)c(N)c1`, the viability at 10 µM worked out at 29.5% in data set [1] and 36.2% in data set [2]. The viability at 48 h, 10 µM in data set [3] was determined as 38.3%.
For the compound `CCN(CC)CCCNC(=O)c1cc2cc(Nc3nccc(-c4cccnc4)n3)ccc2[nH]1`, the viability at 10 µM was 39.4% in [1] and 67.8% in data set [2]. In addition, the viability at 48 h, 10 µM in [3] came out at 82.6%.
The like results for `COc1cc(NC(=O)c2cc3cc(Nc4nccc(-c5cccnc5)n4)ccc3[nH]2)cc(OC)c1OC` were, in that order, 44.6%, 83.3% and 43.6%.
Regarding `Nc1ccc(Cl)cc1NC(=O)c1cc2cc(Nc3nccc(-c4cccnc4)n3)ccc2[nH]1`, the viability at 10 µM in data set [1] was determined as 89.5%; in data set [2] it was 97.7%. In addition, the viability at 48 h, 10 µM in data set [3] was found to be 62.3%.
On to `Cc1ccc(NC(=O)c2cc3cc(Nc4nccc(-c5cccnc5)n4)ccc3[nH]2)c(C)c1`, for which the viability at 10 µM in data set [1] stood at 38.3%; in [2], 59.8%. Moreover, in data set [3], the viability at 48 h, 10 µM is 48.3%.
In turn, `COc1ccc2ccccc2c1/C=N/NC(=O)c1cc2cc(Nc3cc(C)nc4c(OC)cccc34)ccc2[nH]1` showed a Kd in [5] of 2.25 µM.
As to `O=C(Nc1ccc(F)c(F)c1F)c1cc2cc(Nc3nccc(-c4cccnc4)n3)ccc2[nH]1`, the viability at 10 µM in [1] was 99.8%; in [2], 114%. Moreover, the viability at 48 h, 10 µM in [3] was determined as 109%.
Take `Cc1ccccc1NC(=O)c1cc2cc(Nc3nccc(-c4cccnc4)n3)ccc2[nH]1`: the figures for the viability at 10 µM in [1] and in data set [2] were 35.4% and 90.4%, respectively. The viability at 48 h, 10 µM in data set [3] was 84.1%.
As for `O=C(NCc1ccccc1)c1cc2cc(Nc3nccc(-c4cccnc4)n3)ccc2[nH]1`, the viability at 10 µM was found to be 82% in data set [1] and 113% in [2]. The viability at 48 h, 10 µM in [3] was 94.8%.
Broadly, the IC50 is the concentration at which inhibition is half-maximal. `CC1=C(O)C(=O)C=C2C1=CC=C1[C@@]2(C)CC[C@@]2(C)[C@@H]3C[C@](C)(C(=O)O)CC[C@]3(C)CC[C@]12C` [CELASTROL]: the viability at 10 µM in data set [1] worked out at 49.2%; in [2] it was 18.7%. Besides, the viability at 48 h, 10 µM in data set [3] turned out to be 13%. For the same compound, the IC50 was 3.73 µM in data set [6]; 4.45 µM in data set [7]; 6.04 µM in data set [8]; 1.21 µM in data set [9]; 1.08 µM in data set [10]; 4.99 µM in [11]. In addition, the IC50 at 48 h in data set [12] was found to be 1.12 µM. The selectivity ratio in data set [13] came out at 0.3; in data set [14] it was 0.25; in data set [15], 0.19; in [16], 0.87; in data set [17], 1.04; in data set [18], 0.22. Besides, the outcome in [19] was Active. Also, the mortality at 24 h, 0.5 µM in data set [20] came out at 30%. Also, the mortality at 72 h, 0.5 µM in data set [21] is 94%. Further, the mortality at 24 h, 1 µM in data set [22] is 100%. Besides, the mortality at 72 h, 1 µM in data set [23] was 100%.
With `COc1cccc(NC(=O)c2cc3cc(Nc4nccc(-c5cccnc5)n4)ccc3[nH]2)c1`, the values for the viability at 10 µM in data set [1] and in data set [2] were 30.2% and 55.2%, respectively. In addition, the viability at 48 h, 10 µM in data set [3] worked out at 68.6%.
As to `Cc1ccc(NC(=O)c2cc3cc(Nc4nccc(-c5cccnc5)n4)ccc3[nH]2)cc1C`, the viability at 10 µM is 43.4% in data set [1] and 69.9% in [2]. For the same compound, in [3], the viability at 48 h, 10 µM is 55.8%.
As to `O=C(Nc1cc(Br)ccn1)c1cc2cc(Nc3nccc(-c4cccnc4)n3)ccc2[nH]1`, the viability at 10 µM in [1] was determined as 115%; in [2] it was 85.9%. The viability at 48 h, 10 µM in data set [3] was determined as 81.1%.
